Test results taken from patent US9974775B2, “Substituted imidazoles as N-type calcium channel blockers” (Janssen Pharmaceutica NV, priority 2013, dated 2018).
One block for each compound: values may come before it.

How the values were obtained:
human N-type Ca channel [1] = biological target: T1, human N-type Ca channel (Homo sapiens, UniProt Q00975); assay: Calcium influx assay (FDSS); format: cell-based; design: host or cells: HEK 293; conditions: HEK 293 cells, depolarized with 100 mM KCl
Method: All cell culture reagents were procured from HyClone and other reagents were from Fisher. Recombinant HEK 293 cells expressing human N-type Ca channel (Millipore) were maintained in DMEM F12 containing 10% FBS and selection antibiotics at 37° C. in 5% CO2.
Cells were incubated at 30° C. in 5% CO2 overnight. The medium was removed and cells were loaded with Fluo8 dye (AAT Bioquest) at 37° C. and 30° C., 30 min each in darkness. Cells were washed four times with wash buffer (16 mM Herep pH 7.2, 2 mM CaCl2, 1 mM MgCl2, 5 mM glucose, 140 mM choline chloride and 2 mM KCl) leaving 15 μL buffer after the last wash. Compounds of Formula (I), serially diluted, were added to the cell plate. The plates were incubated in darkness for 15 min. Cells were depolarized with 100 mM KCl and Ca influx was measured.

human N-type Ca channel [2] = biological target: T1, human N-type Ca channel; assay: Measurement of electrophysiological response (QPatch); conditions: for N Type IC50 Data Qpatch Pulse = 1 / N Type IC50 Data Qpatch Pulse = 15: concentration range 0.01-0.3 μM
Method: The recombinant cell line described above was used in the measurement of electrophysiological properties with QPatch (Sophion). […] Prior to the experiment, the flasks were moved to 30° C. and incubated for 48-72 hrs. On the day of assaying, cells were detached and harvested. The cell pellet was re-suspended in SMF4HEK (HyClone)/25 mM HEPS at 2-5 million/mL and placed on the QStirrer of the QPatch for 30-60 min prior to the start of the assay. […] Microtiter-Plate/Reference Buffer contained 140 mM TEA-Cl, 10 mM BaCl2, 0.8 mM MgCl2, 10 mM HEPES pH˜7.4 adjusted with TEA-OH/HCl, and ˜300 mOsm. Cells were transferred to a QPatch 48 plate and gigaseal was formed. The plate was perfused with intracellular and extracellular buffer. […] In brief, cells were depolarized from resting potential of −80 mV to +20 mV and current was recorded. Data was plotted as percent inhibition vs concentration of the compound and IC50 values were generated using Graphpad Prism non-linear regression analysis.

[3] = N Type IC50 Data Qpatch Pulse = 15, Pulse = 15, concentration range 0.3-10 μM
[4] = N Type IC50 Data Qpatch Pulse = 1, Pulse = 1, concentration range 0.3-10 μM

T1 sequence (Q00975 whole entry): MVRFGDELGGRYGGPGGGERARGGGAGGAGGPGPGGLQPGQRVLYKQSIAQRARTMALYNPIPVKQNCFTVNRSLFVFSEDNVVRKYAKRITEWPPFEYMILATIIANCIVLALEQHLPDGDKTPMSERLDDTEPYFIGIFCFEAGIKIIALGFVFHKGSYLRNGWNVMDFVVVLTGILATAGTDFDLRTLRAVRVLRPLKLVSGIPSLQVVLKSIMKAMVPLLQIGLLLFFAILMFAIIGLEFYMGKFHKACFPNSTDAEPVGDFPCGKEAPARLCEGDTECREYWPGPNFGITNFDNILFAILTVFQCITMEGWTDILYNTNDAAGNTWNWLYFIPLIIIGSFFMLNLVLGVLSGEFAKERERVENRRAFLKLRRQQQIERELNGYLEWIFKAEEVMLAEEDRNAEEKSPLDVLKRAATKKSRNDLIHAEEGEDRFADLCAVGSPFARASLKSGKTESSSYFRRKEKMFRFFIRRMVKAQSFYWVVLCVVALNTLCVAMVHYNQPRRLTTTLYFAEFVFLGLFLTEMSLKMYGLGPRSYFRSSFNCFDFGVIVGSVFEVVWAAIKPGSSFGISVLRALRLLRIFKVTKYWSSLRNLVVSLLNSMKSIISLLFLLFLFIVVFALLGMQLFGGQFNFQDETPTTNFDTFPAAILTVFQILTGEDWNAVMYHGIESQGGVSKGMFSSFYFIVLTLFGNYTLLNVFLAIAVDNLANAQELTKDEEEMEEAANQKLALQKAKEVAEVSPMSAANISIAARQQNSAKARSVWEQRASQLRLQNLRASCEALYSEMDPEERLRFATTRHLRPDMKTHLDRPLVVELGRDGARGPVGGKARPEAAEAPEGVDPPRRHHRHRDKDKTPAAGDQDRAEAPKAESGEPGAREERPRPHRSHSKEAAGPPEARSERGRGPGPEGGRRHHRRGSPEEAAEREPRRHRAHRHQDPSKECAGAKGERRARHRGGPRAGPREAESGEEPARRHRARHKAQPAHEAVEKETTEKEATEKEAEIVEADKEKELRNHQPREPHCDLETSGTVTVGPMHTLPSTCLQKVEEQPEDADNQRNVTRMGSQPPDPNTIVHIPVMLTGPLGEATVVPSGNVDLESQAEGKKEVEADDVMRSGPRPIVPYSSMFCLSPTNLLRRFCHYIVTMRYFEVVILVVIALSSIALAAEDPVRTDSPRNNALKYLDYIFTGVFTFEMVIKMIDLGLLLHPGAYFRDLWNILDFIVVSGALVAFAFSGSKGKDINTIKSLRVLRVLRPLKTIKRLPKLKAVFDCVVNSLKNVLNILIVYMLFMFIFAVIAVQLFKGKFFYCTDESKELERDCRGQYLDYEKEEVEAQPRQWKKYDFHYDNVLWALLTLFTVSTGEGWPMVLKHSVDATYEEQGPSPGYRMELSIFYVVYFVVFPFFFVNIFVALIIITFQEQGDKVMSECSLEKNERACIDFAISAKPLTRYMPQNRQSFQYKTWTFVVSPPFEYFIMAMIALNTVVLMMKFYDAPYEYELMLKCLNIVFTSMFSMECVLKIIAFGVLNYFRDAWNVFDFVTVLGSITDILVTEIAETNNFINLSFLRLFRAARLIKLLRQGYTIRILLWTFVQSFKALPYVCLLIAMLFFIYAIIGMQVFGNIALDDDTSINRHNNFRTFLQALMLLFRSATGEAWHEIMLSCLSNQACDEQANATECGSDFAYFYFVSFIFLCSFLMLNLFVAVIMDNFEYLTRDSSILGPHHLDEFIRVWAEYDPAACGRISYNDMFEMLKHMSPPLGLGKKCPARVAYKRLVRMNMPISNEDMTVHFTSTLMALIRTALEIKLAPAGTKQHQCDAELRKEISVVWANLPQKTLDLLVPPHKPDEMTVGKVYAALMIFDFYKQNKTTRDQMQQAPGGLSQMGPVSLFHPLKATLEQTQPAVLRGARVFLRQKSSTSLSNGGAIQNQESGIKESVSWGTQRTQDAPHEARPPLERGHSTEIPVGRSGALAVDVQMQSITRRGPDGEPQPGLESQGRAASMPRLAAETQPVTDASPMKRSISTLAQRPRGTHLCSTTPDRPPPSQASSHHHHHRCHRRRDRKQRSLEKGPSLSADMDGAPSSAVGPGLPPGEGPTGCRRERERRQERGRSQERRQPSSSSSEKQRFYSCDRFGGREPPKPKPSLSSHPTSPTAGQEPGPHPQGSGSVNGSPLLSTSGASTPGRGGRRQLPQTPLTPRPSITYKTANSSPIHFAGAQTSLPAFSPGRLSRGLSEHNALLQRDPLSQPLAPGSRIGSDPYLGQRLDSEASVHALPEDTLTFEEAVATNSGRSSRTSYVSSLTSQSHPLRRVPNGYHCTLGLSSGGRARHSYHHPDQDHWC
T1 sequence (P54284 whole entry partner): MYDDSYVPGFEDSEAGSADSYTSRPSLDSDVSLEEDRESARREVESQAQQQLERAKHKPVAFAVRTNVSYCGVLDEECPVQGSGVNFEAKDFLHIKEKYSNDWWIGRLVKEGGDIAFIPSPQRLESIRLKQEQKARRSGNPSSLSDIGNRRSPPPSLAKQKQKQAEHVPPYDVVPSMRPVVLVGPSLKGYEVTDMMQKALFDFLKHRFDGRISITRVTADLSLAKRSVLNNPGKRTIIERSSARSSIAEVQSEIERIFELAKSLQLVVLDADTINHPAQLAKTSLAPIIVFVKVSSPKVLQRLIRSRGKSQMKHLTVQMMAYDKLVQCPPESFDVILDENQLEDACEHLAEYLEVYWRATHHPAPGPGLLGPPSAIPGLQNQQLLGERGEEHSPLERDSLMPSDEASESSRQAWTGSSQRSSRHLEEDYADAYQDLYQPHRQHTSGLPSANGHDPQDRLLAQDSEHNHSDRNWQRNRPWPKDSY
T1 sequence (P54289 25-956 partner limits assumed): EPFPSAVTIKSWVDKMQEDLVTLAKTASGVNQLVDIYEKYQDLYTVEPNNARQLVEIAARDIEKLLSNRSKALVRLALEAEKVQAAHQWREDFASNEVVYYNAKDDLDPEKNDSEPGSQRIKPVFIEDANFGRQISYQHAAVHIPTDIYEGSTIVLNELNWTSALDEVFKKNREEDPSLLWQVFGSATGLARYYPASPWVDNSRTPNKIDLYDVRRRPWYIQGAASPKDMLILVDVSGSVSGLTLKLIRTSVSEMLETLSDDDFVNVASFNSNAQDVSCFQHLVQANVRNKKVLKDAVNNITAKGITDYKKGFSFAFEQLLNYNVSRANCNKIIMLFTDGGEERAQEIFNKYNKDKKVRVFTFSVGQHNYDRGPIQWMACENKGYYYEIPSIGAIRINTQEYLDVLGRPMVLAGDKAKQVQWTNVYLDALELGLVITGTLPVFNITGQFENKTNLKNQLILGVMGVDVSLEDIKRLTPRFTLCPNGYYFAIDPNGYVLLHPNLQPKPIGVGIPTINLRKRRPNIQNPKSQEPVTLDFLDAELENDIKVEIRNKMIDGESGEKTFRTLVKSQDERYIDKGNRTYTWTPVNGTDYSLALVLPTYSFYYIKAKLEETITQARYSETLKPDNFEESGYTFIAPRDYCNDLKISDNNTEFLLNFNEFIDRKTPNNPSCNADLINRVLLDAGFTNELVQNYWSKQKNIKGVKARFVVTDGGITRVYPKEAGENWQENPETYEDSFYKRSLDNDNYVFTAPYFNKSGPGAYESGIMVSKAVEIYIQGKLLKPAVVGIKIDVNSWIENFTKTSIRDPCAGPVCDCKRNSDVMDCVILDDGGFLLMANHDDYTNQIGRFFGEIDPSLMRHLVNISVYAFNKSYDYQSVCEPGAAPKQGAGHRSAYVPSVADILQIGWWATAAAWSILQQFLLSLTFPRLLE
T1 sequence (P54289 957-1103 partner limits assumed): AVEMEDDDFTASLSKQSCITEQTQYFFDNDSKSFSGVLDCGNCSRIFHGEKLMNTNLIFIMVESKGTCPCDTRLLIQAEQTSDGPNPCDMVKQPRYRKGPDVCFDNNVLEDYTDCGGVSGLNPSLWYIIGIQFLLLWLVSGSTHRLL

IC50 (human N-type Ca channel [1]): ≥ 10000 nM
Compound: COc1cc(-n2cc(C3CC(C)(C)OC(C)(C)C3)nc2-c2cccnc2OC)ccc1C#N [Cpd 77, 2-Methoxy-4-[2-(2-methoxypyridin-3-yl)-4-(2,2,6,6-tetramethyltetrahydro-2H-pyran-4-yl)-1H-imidazol-1-yl]benzonitrile]

IC50 (human N-type Ca channel [1]): 148 nM
IC50 (human N-type Ca channel [2]; [3]): 5030 nM
inhibition at 10 µM (human N-type Ca channel [2]; read-out: Qpatch Pulse = 1 (percent inhibition)): 71%
Compound: COc1ccccc1-c1nc(C2(O)CC(C)(C)OC(C)(C)C2)cn1-c1ccc(F)c(Br)c1 [Cpd 106, 4-[1-(3-Bromo-4-fluorophenyl)-2-(2-methoxyphenyl)-1H-imidazol-4-yl]-2,2,6,6-tetramethyltetrahydro-2H-pyran-4-ol]

IC50 (human N-type Ca channel [1]): 234 nM
IC50 (human N-type Ca channel [2]; [3]): 1900 nM
Compound: COc1ccccc1-c1nc(C2=CC(C)(C)OC(C)(C)C2)cn1-c1ccc(C#N)c(F)c1 [Cpd 126, 2-Fluoro-4-[2-(2-methoxyphenyl)-4-(2,2,6,6-tetramethyl-3,6-dihydro-2H-pyran-4-yl)-1H-imidazol-1-yl]benzonitrile]

IC50 (human N-type Ca channel [1]): 1370 nM
IC50 (human N-type Ca channel [2]; N Type IC50 Data Qpatch Pulse = 1, Pulse = 1, concentration range 0.01-1 μM): > 1000 nM
IC50 (human N-type Ca channel [2]; N Type IC50 Data Qpatch Pulse = 15, Pulse = 15, concentration range 0.01-1 μM): > 1000 nM
Compound: COc1ncccc1-c1nc(C2(O)CC(C)(C)OC(C)(C)C2)cn1-c1ccc(F)c(C#N)c1 [Cpd 116, 2-Fluoro-5-[4-(4-hydroxy-2,2,6,6-tetramethyltetrahydro-2H-pyran-4-yl)-2-(2-methoxypyridin-3-yl)-1H-imidazol-1-yl]benzonitrile]

IC50 (human N-type Ca channel [1]): ≥ 10000 nM
Compound: COc1ccccc1-c1nc(C2CC(C)(C)OC(C)(C)C2)cn1S(=O)(=O)C1CC1 [Cpd 95, 1-(Cyclopropylsulfonyl)-2-(2-methoxyphenyl)-4-(2,2,6,6-tetramethyltetrahydro-2H-pyran-4-yl)-1H-imidazole]

IC50 (human N-type Ca channel [1]): ≥ 10000 nM
Compound: CC1(C)CC(c2cn(-c3ccc(C#N)cc3)c(C3CC3)n2)CC(C)(C)O1 [Cpd 57, 4-[2-Cyclopropyl-4-(2,2,6,6-tetramethyltetrahydro-2H-pyran-4-yl)-1H-imidazol-1-yl]benzonitrile]

N Type IC50 Data Qpatch Pulse = 1 (human N-type Ca channel [2]): poor fit
N Type IC50 Data Qpatch Pulse = 15 (human N-type Ca channel [2]): poor fit
Compound: COc1ncccc1-c1nc(C2CC(C)(C)OC(C)(C)C2)cn1-c1cc(F)c(C#N)c(F)c1 [Cpd 82, 2,6-difluoro-4-(2-(2-methoxypyridin-3-yl)-4-(2,2,6,6-tetramethyltetrahydro-2H-pyran-4-yl)-1H-imidazol-1-yl)benzonitrile]

N Type IC50 Data Qpatch Pulse = 15 (human N-type Ca channel [2]): poor fit
Compound: CCOc1ncccc1-c1nc(C2CC(C)(C)OC(C)(C)C2)cn1-c1ccc(C#N)c(F)c1 [Cpd 89, 4-(2-(2-ethoxypyridin-3-yl)-4-(2,2,6,6-tetramethyltetrahydro-2H-pyran-4-yl)-1H-imidazol-1-yl)-2-fluorobenzonitrile]

IC50 (human N-type Ca channel [2]; [4]): ≥ 10000 nM
IC50 (human N-type Ca channel [2]; [3]): ≥ 10000 nM
Compound: COc1ccccc1-c1nc(C2CC(C)(C)OC(C)(C)C2)cn1-c1ccc(C)cn1 [Cpd 6, 2-[2-(2-Methoxyphenyl)-4-(2,2,6,6-tetramethyltetrahydro-2H-pyran-4-yl)-1H-imidazol-1-yl]-5-methylpyridine]

IC50 (human N-type Ca channel [2]; [4]): ≥ 10000 nM
Compound: COc1cnccc1-c1nc(C2CC(C)(C)OC(C)(C)C2)cn1-c1ccc(Cl)cc1 [Cpd 66, 4-(1-(4-chlorophenyl)-4-(2,2,6,6-tetramethyltetrahydro-2H-pyran-4-yl)-1H-imidazol-2-yl)-3-methoxypyridine]

IC50 (human N-type Ca channel [2]; [4]): ≥ 10000 nM
Compound: COc1ccncc1-c1nc(C2CC(C)(C)OC(C)(C)C2)cn1-c1ccc(Cl)cc1 [Cpd 68, 3-(1-(4-chlorophenyl)-4-(2,2,6,6-tetramethyltetrahydro-2H-pyran-4-yl)-1H-imidazol-2-yl)-4-methoxypyridine]

N Type IC50 Data Qpatch Pulse = 1 (human N-type Ca channel [2]): poor fit
N Type IC50 Data Qpatch Pulse = 15 (human N-type Ca channel [2]): poor fit
Compound: COc1ncccc1-c1nc(C2CC(C)(C)OC(C)(C)C2)cn1Cc1ccc(Cl)cc1 [Cpd 28, 3-[1-(4-Chlorobenzyl)-4-(2,2,6,6-tetramethyltetrahydro-2H-pyran-4-yl)-1H-imidazol-2-yl]-2-methoxypyridine]
